Experimental data reported in patent publication US11246309B2, “Preserving agent for organs or tissue and preservation method for organs or tissue” (ISHIHARA SANGYO KAISHA, LTD., priority 2015, dated 2022).

Assays:
liver [1] = test: Organ preservation test: rat liver preserved at 4° C., ALT in organ immersion solution; parameters: species or system SD rats; conditions: additives in UW solution, liver at 4° C., mean of n=3 ± SD
Procedure: The protective action of a preserving solution for organs or tissue used in organ transplantation or tissue transplantation was assumed, and formulations of preservative solutions containing UW solution, and a combination of quercetin and sugar were evaluated using liver damage degree as an index. Williams solution (GIBCO, No. 12551-032) only, Williams solution containing quercetin (Sigma-Aldrich, 337951-25G) (10 μg/mL), Williams solution containing quercetin (10 μg/mL) and fructose (0.05M to 0.4M) (Kanto Chemical Co., Inc., Code No. 16065-00) (0.05M to 0.4M), or Williams solution containing quercetin (10 μg/mL) and sucrose (0.025M to 0.2M) (Nacalai Tesque, Inc., Code No. 30404-45) (0.025M to 0.2M) was used as an organ perfusion solution. Subsequently, UW solution (VSP1000, […] (cold storage solution) 1000 mL: Astellas Pharma Inc.) only, UW solution containing quercetin (10 μg/mL), UW solution containing quercetin (10 μg/mL) and fructose (0.05M to 0.4M), or UW solution containing quercetin (10 μg/mL) and sucrose (0.025M to 0.2M) was used as an organ preserving solution. SD rats (male, body weight=255.4 g to 339.0 g) were injected with heparin from the portal vein under anesthesia. Thereafter, they were perfused with a physiological saline solution (8 cmH2O, about 100 mL) at room temperature, and then perfused with each organ perfusion solution (8 cmH2O, about 100 mL) at room temperature. Thereafter, the liver was excised, immersed in 20 mL of each organ preserving solution, and preserved at 4° C. A part of each organ preserving solution was collected at 1 day after, 3 days after, 5 days after, and 7 days after the preservation was started, and ALT (alanine aminotransferase) (IU/L) was measured as an index of the degree of liver damage due to low-temperature preservation. The measured ALT are shown in Tables 1 and 2 (average value of n=3±standard deviation).

liver [2] = test: Organ preservation test: hepatic histopathological change after preservation at 4° C.; parameters: species or system SD rats; conditions: additives in UW solution, score 0 to 3.0 per sample
Procedure: The formulations of preserving solutions containing UW solution, and a combination of quercetin and sugar were evaluated using a hepatic histopathological change as an index.
Williams solution only, Williams solution containing only quercetin (10 μg/mL), Williams solution containing only fructose (0.2M), Williams solution containing only sucrose (0.1M), Williams solution containing quercetin (10 μg/mL) and fructose (0.2M), or Williams solution containing quercetin (10 μg/mL) and sucrose (0.1M) was used as an organ perfusion solution. Subsequently, as an organ preserving solution, UW solution only, UW solution containing only quercetin (10 μg/mL), UW solution containing only fructose (0.2M), UW solution containing only sucrose (0.1M), UW solution containing quercetin (10 μg/mL) and fructose (0.2M) or UW solution containing quercetin (10 μg/mL) and sucrose (0.1M) was used.
SD rats (male, body weight=264.1 g to 317.2 g) were injected with heparin from the portal vein under anesthesia. Thereafter, they were perfused with a physiological saline solution (8 cmH2O, about 100 mL) at room temperature, and then perfused with each organ perfusion solution (8 cmH2O, about 100 mL) at room temperature. Thereafter, the liver was excised, immersed in 20 mL of each organ preserving solution, and preserved at 4° C. 1 day after and 2 days after the preservation was started, all liver samples were immobilized using a 10% phosphate buffer formalin aqueous solution, and embedded in paraffin according to the standard method. Each sample was sliced into about 6 μm and a hematoxylin-eosin staining sample was prepared, followed by microscopic examination. The degrees of the observed histopathological change were converted to scores as shown below, and summed as cumulative values.
Score 0: no change was observed, Score 0.5: slight change was observed, Score 1.0: small change was observed, Score 2.0: intermediate change was observed, Score 3.0: great change was observed.

[3] = 1 day after preservation at 4° C. was started
[4] = 2 days after preservation at 4° C. was started

O=c1c(O)c(-c2ccc(O)c(O)c2)oc2cc(O)cc(O)c12 [Quercetin 10 μg/mL, quercetin]
ALT Value in Organ Immersion Solution (liver [1]; Table 1, 1 day after): 65 ± 71 IU/L
ALT Value in Organ Immersion Solution (liver [1]; Table 1, 3 days after): 90 ± 82 IU/L
ALT Value in Organ Immersion Solution (liver [1]; Table 1, 5 days after): 98 ± 77 IU/L
ALT Value in Organ Immersion Solution (liver [1]; Table 1, 7 days after): 117 ± 71 IU/L
ALT Value in Organ Immersion Solution (liver [1]; Table 2, 1 day after): 62 ± 68 IU/L
ALT Value in Organ Immersion Solution (liver [1]; Table 2, 3 days after): 108 ± 121 IU/L
ALT Value in Organ Immersion Solution (liver [1]; Table 2, 5 days after): 126 ± 135 IU/L
ALT Value in Organ Immersion Solution (liver [1]; Table 2, 7 days after): 148 ± 144 IU/L
Histopathological Change: Diffuse Vacuolar Degeneration (Cumulative Score of n = 3) (liver [2]; [3]): 3.0
Histopathological Change: Sporadic Single Cell Cloudy Swelling (Cumulative Score of n = 3) (liver [2]; [3]): 1.5
Histopathological Change: Sporadic Single Cell Necrosis (Cumulative Score of n = 3) (liver [2]; [3]): 0.0
Histopathological Change: Diffuse Vacuolar Degeneration (Cumulative Score of n = 3) (liver [2]; [4]): 3.0
Histopathological Change: Sporadic Single Cell Cloudy Swelling (Cumulative Score of n = 3) (liver [2]; [4]): 2.0
Histopathological Change: Sporadic Single Cell Necrosis (Cumulative Score of n = 3) (liver [2]; [4]): 0.5

O=C(CO)[C@@H](O)[C@H](O)[C@H](O)CO [0.2M Fructose, fructose]
Histopathological Change: Diffuse Vacuolar Degeneration (Cumulative Score of n = 3) (liver [2]; [3]): 2.0
Histopathological Change: Sporadic Single Cell Cloudy Swelling (Cumulative Score of n = 3) (liver [2]; [3]): 2.5
Histopathological Change: Sporadic Single Cell Necrosis (Cumulative Score of n = 3) (liver [2]; [3]): 1.0
Histopathological Change: Diffuse Vacuolar Degeneration (Cumulative Score of n = 3) (liver [2]; [4]): 1.5
Histopathological Change: Sporadic Single Cell Cloudy Swelling (Cumulative Score of n = 3) (liver [2]; [4]): 1.0
Histopathological Change: Sporadic Single Cell Necrosis (Cumulative Score of n = 3) (liver [2]; [4]): 0.5

OC[C@H]1O[C@@](CO)(O[C@H]2O[C@H](CO)[C@@H](O)[C@H](O)[C@H]2O)[C@@H](O)[C@@H]1O [0.1M Sucrose, sucrose]
Histopathological Change: Diffuse Vacuolar Degeneration (Cumulative Score of n = 3) (liver [2]; [3]): 3.0
Histopathological Change: Sporadic Single Cell Cloudy Swelling (Cumulative Score of n = 3) (liver [2]; [3]): 2.0
Histopathological Change: Sporadic Single Cell Necrosis (Cumulative Score of n = 3) (liver [2]; [3]): 0.5
Histopathological Change: Diffuse Vacuolar Degeneration (Cumulative Score of n = 3) (liver [2]; [4]): 3.0
Histopathological Change: Sporadic Single Cell Cloudy Swelling (Cumulative Score of n = 3) (liver [2]; [4]): 2.5
Histopathological Change: Sporadic Single Cell Necrosis (Cumulative Score of n = 3) (liver [2]; [4]): 1.0
